Reference: ChEMBL document CHEMBL1201862, “PubChem BioAssay data set” (2004)
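In this assay, cells in 96-well plates receive the compound at five concentrations for 48 hours. Endpoints are linearly interpolated between the surrounding concentrations. Here, GI50 denotes the concentration required for 50% inhibition of growth.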 Active and inactive are the calls of the source. Cut-off read from the data, not from the text of the source: active = GI50 up to about 1.1 µM and inactive = higher.

Experiments:
Experiment in all cases: growth of human tumour cells (NCI), 48 h
DLD-1 = system: DLD-1
DMS-273 = system: DMS-273
HOP-18 = system: HOP-18
KM-20L2 = system: KM-20L2
M19-MEL = system: M19-MEL
RXF 631 = system: RXF 631
XF498 = system: XF498
DMS-114 = system: DMS-114

Measured: GI50

CCOc1ccc(/N=C/c2ccc3ccccc3n2)cc1
inactive: DLD-1 > 100 µM | DMS-273 > 100 µM | HOP-18 > 100 µM | KM-20L2 > 100 µM | M19-MEL > 100 µM | RXF 631 > 100 µM | XF498 > 100 µM

BrC1=CC=C2NCCCCCC/N=C3\C=CC(Br)=CC=C3NCCCCCC/N=C\2C=C1
inactive: DLD-1 > 25.5 µM | DMS-114 > 25.5 µM | DMS-273 > 25.5 µM | KM-20L2 > 25.5 µM | M19-MEL > 25.5 µM | RXF 631 > 25.5 µM

COC1OC(CO)C(O)C(OC(C)=O)C1NC(=O)N(CCCl)N=O (configuration not stated)
inactive: DLD-1 > 100 µM | DMS-114 > 100 µM | DMS-273 > 100 µM | HOP-18 > 100 µM | KM-20L2 > 100 µM | M19-MEL > 100 µM | RXF 631 > 100 µM | XF498 > 100 µM

O=S(O)CCCCSSCCCCSSCCCCS(=O)O
inactive: DLD-1 86.1 µM | DMS-114 25.5 µM | DMS-273 42.6 µM | HOP-18 70.1 µM | KM-20L2 > 100 µM | M19-MEL 5.53 µM | RXF 631 33.7 µM | XF498 6.41 µM

CC1(C)CC23C(=O)N(c4ccccc4)C(Nc4ccccc4)=NC2=CC(C#N)=C(C#N)C3O1 (configuration not stated)
inactive: DLD-1 56.2 µM | DMS-114 42.5 µM | KM-20L2 > 100 µM | M19-MEL 94.6 µM | RXF 631 > 100 µM | XF498 > 100 µM

C[C@]12CCc3nonc3C1CC[C@@H]1C2CC[C@]2(C)C(=O)/C(=N\O)CC12 (some centres not stated)
inactive: DLD-1 > 100 µM | DMS-114 > 100 µM | DMS-273 > 100 µM | HOP-18 > 100 µM | KM-20L2 > 100 µM | M19-MEL > 100 µM | RXF 631 > 100 µM | XF498 > 100 µM

COC(=O)c1[nH]c(=S)[nH]c(=O)c1-c1ccc(Cl)cc1
inactive: DLD-1 > 50 µM | DMS-114 > 50 µM | DMS-273 > 50 µM | KM-20L2 > 50 µM | M19-MEL > 50 µM | RXF 631 > 50 µM | XF498 > 50 µM

COc1ccc2ccccc2c1C1OC(=O)c2ccccc21 (configuration not stated)
inactive: DLD-1 > 100 µM | DMS-114 53.3 µM | DMS-273 86.9 µM | HOP-18 > 100 µM | KM-20L2 > 100 µM | M19-MEL > 100 µM | RXF 631 > 100 µM
